Data as given in PubChem BioAssay AID504363 (Southern Research Specialized Biocontainment Screening …, 2011).
Calls of active or inactive are those of the source.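 The calls were made as follows: active = compound cutting virus infection of reporter cells by half or more at some tested dose; inactive = the rest.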

Each compound was assayed on MAGI-CCR5 HeLa cells, HIV-1 IIIB, beta-gal luminescence, 48 h (assay: X4 HIV-1 replication inhibitors in MAGI cells, dose response, MAGI-CCR5 cells, beta-gal luminescence, 2% serum (AID 504363)).

SMILES | IC50
CS(=O)(=O)C1=NSC2=NC(=O)/C(=C\c3cccn3-c3ccc(Cl)c(Cl)c3)C(=N)N21 | 33.7 µM
Cc1c2c(=O)n(-c3nc4ccccc4s3)nc-2cc(O)n1Cc1ccc(F)cc1 | 2.63 µM
CCOC(=O)C1=C(C)N=c2sc(=Cc3ccc(OCC(=O)O)cc3)c(=O)n2C1c1cc(OC)c(OC)c(OC)c1 (stereo not drawn) | 91.7 µM
CCOC(=O)C1=C(C)N=c2s/c(=C\c3ccc(OCC(=O)O)cc3)c(=O)n2C1c1ccc(OC)c(OCC)c1 (stereo not drawn) | 30.4 µM
CCOC(=O)C1=C(c2ccccc2)N=c2s/c(=C\c3ccc(OCC(=O)O)cc3)c(=O)n2C1c1cccc(OC)c1 (stereo not drawn) | 10.6 µM
COc1ccc(-n2cccc2/C=C2/C(=N)N3C(=NC2=O)SN=C3S(C)(=O)=O)cc1Cl | 36.8 µM
CCOC(=O)C1=C(C)N=c2sc(=Cc3ccc(OCC(=O)O)cc3)c(=O)n2C1c1ccccc1 (stereo not drawn) | 34.4 µM
O=C(O)c1ccc([C@@H]2Nc3ccc(S(=O)(=O)Nc4cccc5ccccc45)cc3[C@@H]3C=CC[C@@H]32)cc1 | 11 µM
Cc1c2c(=O)n(-c3nc4ccccc4s3)nc-2cc(O)n1Cc1cccnc1 | 2.81 µM
COc1ccc(Cn2c(O)cc3nn(-c4nc5ccccc5s4)c(=O)c-3c2C)cc1 | 3.09 µM
O=C(O)CCCN1C(=O)/C(=C\c2ccc(-c3ccc(F)cc3)o2)SC1=S | 20.6 µM
Cc1c2c(=O)n(-c3nc4ccccc4s3)nc-2cc(O)n1C1CC1 | 1.08 µM
O=C(O)CCC(C(=O)O)N1C(=O)/C(=C\c2ccco2)SC1=S (stereo not drawn) | > 100 µM (inactive)
Cc1c2c(=O)n(-c3nc4ccccc4s3)nc-2cc(O)n1Cc1ccccc1Cl | 4.17 µM
CCc1ccc(-c2ccc(/C=C3\SC(=S)N(CCCC(=O)O)C3=O)o2)cc1 | 14.8 µM
CCOC(=O)C1=C(C)N=c2sc(=Cc3ccc(OCC(=O)O)cc3)c(=O)n2C1c1ccc(F)cc1 (stereo not drawn) | 29 µM
O=C(O)c1ccc(C[n+]2c(-c3ccccc3)csc2Nc2ccccc2)cc1 | 53.9 µM
O=C(O)c1ccc(C[n+]2c(-c3ccc([N+](=O)[O-])cc3)csc2Nc2ccccc2)cc1 | 31.7 µM
O=C(O)CCCN1C(=O)/C(=C/c2cc3ccccc3o2)SC1=S | 24.8 µM
O=C(O)CCCN1C(=O)/C(=C/c2ccc(-c3ccc(Cl)c(Cl)c3)o2)SC1=S | 19.9 µM
CS(=O)(=O)C1=NSC2=NC(=O)/C(=C\c3cccn3-c3cc(Cl)cc(Cl)c3)C(=N)N21 | 34.3 µM
CCOC(=O)C1=C(C)N=c2s/c(=C\c3ccc(OCC(=O)O)cc3)c(=O)n2C1c1ccc(Cl)cc1 (stereo not drawn) | 24.4 µM
CCOC(=O)C1=C(C)N=c2sc(=Cc3ccc(OCC(=O)O)cc3)c(=O)n2C1c1ccccc1OC (stereo not drawn) | 34.5 µM
CS(=O)(=O)C1=NSC2=NC(=O)/C(=C\c3cccn3-c3cccc(Cl)c3)C(=N)N21 | 35.7 µM
O=C(O)CCCN1C(=O)/C(=C/c2ccc(-c3cccc(C(F)(F)F)c3)o2)SC1=S | 23.4 µM
COc1ccc(-c2ccc(/C=C3\SC(=S)N(CCCC(=O)O)C3=O)o2)cc1 | 26 µM
CCOc1ccc(-n2cccc2/C=C2/C(=N)N3C(=NC2=O)SN=C3S(C)(=O)=O)cc1 | 34.4 µM
CS(=O)(=O)C1=NSC2=NC(=O)/C(=C\c3cccn3-c3cccc(F)c3)C(=N)N21 | 36.9 µM
O=C(O)CCCN1C(=O)/C(=C\c2ccc(-c3ccc(Cl)cc3)o2)SC1=S | 15.2 µM
Cc1c2c(=O)n(-c3nc4ccccc4s3)nc-2cc(O)n1CCC(C)C | 2.53 µM

More lines, now with the values ahead:

IC50 | SMILES
34.1 µM | CS(=O)(=O)C1=NSC2=NC(=O)/C(=C\c3cccn3-c3cccc(C(F)(F)F)c3)C(=N)N21
36.2 µM | CS(=O)(=O)C1=NSC2=NC(=O)/C(=C\c3cccn3-c3ccc(Cl)cc3)C(=N)N21
3.25 µM | Cc1c2c(=O)n(-c3nc4ccccc4s3)nc-2cc(O)n1Cc1cccs1
31.9 µM | CCc1ccc(-n2cccc2/C=C2/C(=N)N3C(=NC2=O)SN=C3S(C)(=O)=O)cc1
31.4 µM | COc1cccc(-n2cccc2/C=C2/C(=N)N3C(=NC2=O)SN=C3S(C)(=O)=O)c1
4.44 µM | Cc1c2c(=O)n(-c3nc4ccccc4s3)nc-2cc(O)n1Cc1ccncc1
3.93 µM | COc1ccccc1NS(=O)(=O)c1ccc2c(c1)C1C=CCC1C(c1ccc(C(=O)O)cc1)N2 (stereo not drawn)
34.9 µM | CS(=O)(=O)C1=NSC2=NC(=O)/C(=C\c3cccn3-c3ccc(F)cc3)C(=N)N21
33.7 µM | CCOC(=O)C1=C(C)N=c2sc(=Cc3ccc(OCC(=O)O)cc3)c(=O)n2C1c1ccc(OC)cc1OC (stereo not drawn)
39.7 µM | COc1cccc(C2C(C(=O)Nc3ccccc3)=C(C)N=c3sc(=Cc4ccc(OCC(=O)O)cc4)c(=O)n32)c1 (stereo not drawn)
28.7 µM | O=C(O)CCCN1C(=O)/C(=C\c2ccc(-c3cccc(Cl)c3)o2)SC1=S
> 100 µM (inactive) | CC1=C(C(=O)OC(C)C)C(c2ccc(Cl)cc2)n2c(s/c(=C\c3ccc(OCC(=O)O)cc3)c2=O)=N1 (stereo not drawn)
4.66 µM | Cc1c2c(=O)n(-c3nc4ccccc4s3)nc-2cc(O)n1CCc1ccc(O)cc1
37.9 µM | O=C(O)CCCN1C(=O)/C(=C\c2ccc(-c3ccc(Br)cc3)o2)SC1=S
20.6 µM | Cc1ccc(-c2ccc(/C=C3\SC(=S)N(CCCC(=O)O)C3=O)o2)cc1
35.2 µM | Cc1ccc(-n2cccc2/C=C2/C(=N)N3C(=NC2=O)SN=C3S(C)(=O)=O)cc1C
34.3 µM | CS(=O)(=O)C1=NSC2=NC(=O)/C(=C\c3cccn3-c3ccc(Br)cc3)C(=N)N21
> 100 µM (inactive) | Nc1sc2ccccc2[n+]1Cc1ccc(C(=O)O)cc1
15.8 µM | O=C(O)c1ccc(C2Nc3ccc(S(=O)(=O)Nc4cc(Cl)ccc4Cl)cc3C3C=CCC32)cc1 (stereo not drawn)
34.3 µM | Cc1ccc(-n2cccc2/C=C2/C(=N)N3C(=NC2=O)SN=C3S(C)(=O)=O)cc1
20.5 µM | COc1ccc(CCn2c(O)cc3nn(-c4nc5ccccc5s4)c(=O)c-3c2C)cc1
2.59 µM | COc1ccccc1Cn1c(O)cc2nn(-c3nc4ccccc4s3)c(=O)c-2c1C
3.7 µM | Cc1c2c(=O)n(-c3nc4ccccc4s3)nc-2cc(O)n1CCc1cccs1
